Measured values taken from ChEMBL document CHEMBL1201862, “PubChem BioAssay data set” (2004).
Calls of active or inactive are those of the source.

Tests used:
[1] = molecular target: DNA dC->dU-editing enzyme APOBEC-3A (Homo sapiens, UniProt P31941); experiment: Dose Response confirmation of small molecule APOBEC3A DNA Deaminase Inhibitors via a fluorescence-based single-stranded DNA deaminase assay. [Related pubchem assays (depositor defined):AID493011, AID493024]; assay type: functional
[2] = molecular target: DNA dC->dU-editing enzyme APOBEC-3G (Homo sapiens, UniProt Q9HC16); assay type: functional;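 further: Dose-response counterscreen measuring inhibition of APOBEC3G DNA deaminase activity, run while confirming APOBEC3A inhibitors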
[3] = molecular target: T1, Type-1 angiotensin II receptor (Homo sapiens, UniProt P30556); experiment: agonist activity at AGTR1 – cell-based, uHTS hits, selectivity assay for APJ receptor agonist project, dose response (AID 488865); assay type: functional;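 further: beta-arrestin recruitment to AT1 measured by enzyme fragment complementation luminescence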
T1 sequence (P30556 whole entry): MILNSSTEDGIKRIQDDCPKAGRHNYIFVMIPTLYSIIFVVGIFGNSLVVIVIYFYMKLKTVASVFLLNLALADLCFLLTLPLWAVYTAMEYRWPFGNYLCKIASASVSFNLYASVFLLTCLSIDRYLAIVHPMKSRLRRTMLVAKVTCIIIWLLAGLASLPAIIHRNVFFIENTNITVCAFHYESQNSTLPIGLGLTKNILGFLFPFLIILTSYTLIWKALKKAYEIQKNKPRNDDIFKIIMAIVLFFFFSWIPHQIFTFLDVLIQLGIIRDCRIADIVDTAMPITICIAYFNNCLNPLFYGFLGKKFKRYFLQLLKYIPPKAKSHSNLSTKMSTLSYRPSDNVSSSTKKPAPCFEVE

[4] = molecular target: Alkaline phosphatase, placental type (Homo sapiens, UniProt P05187); experiment: human placental alkaline phosphatase inhibition – biochemical, luminescence, confirmation (AID 1512); assay type: functional
[5] = molecular target: T2, Alkaline phosphatase, tissue-nonspecific isozyme (Homo sapiens, UniProt P05186); experiment: potency against alkaline phosphatase TNAP – biochemical, luminescent, dose response, SAR follow-up (AID 1056)
T2 sequence (P05186 whole entry): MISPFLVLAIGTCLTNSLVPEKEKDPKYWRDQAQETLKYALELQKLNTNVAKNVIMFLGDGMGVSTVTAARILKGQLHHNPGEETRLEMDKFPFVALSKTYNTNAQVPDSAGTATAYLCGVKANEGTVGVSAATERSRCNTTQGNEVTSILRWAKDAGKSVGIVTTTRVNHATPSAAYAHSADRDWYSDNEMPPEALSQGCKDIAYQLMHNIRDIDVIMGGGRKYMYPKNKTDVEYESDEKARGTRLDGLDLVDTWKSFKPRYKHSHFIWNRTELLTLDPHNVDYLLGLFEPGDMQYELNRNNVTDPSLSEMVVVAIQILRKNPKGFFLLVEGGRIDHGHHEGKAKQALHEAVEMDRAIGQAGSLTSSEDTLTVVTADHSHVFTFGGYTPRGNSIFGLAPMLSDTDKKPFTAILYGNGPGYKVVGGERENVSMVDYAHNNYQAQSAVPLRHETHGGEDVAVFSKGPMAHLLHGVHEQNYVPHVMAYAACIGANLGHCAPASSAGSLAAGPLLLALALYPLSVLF

[6] = molecular target: Peroxisome proliferator-activated receptor gamma/Nuclear receptor coactivator 1 (Homo sapiens, UniProt P37231); experiment: (§1) TR-FRET dose response biochemical High Throughput Screening assay for agonists of the steroid receptor coactivator 1 (SRC-1) recruitment by the peroxisome proliferator-activated receptor gamma (PPAR gamma): non-selective agonists. [Related pubchem assays (depositor defined):AID1300, AID1808, AID504735, AID631]; assay type: protein assay
[7] = molecular target: Peroxisome proliferator-activated receptor gamma/Nuclear receptor coactivator 3 (Homo sapiens, UniProt P37231); experiment: as §1, with “3 (SRC-3)” for “1 (SRC-1)”, “assays: 1301 (Confirmation screen.), 1048 (Primary screen.)]” for “assays (depositor defined):AID1300, AID1808, AID504735, AID631]”; assay type: functional
[8] = molecular target: Peroxisome proliferator-activated receptor gamma/Nuclear receptor coactivator 2 (Homo sapiens, UniProt P37231); experiment: TR-FRET dose response biochemical High Throughput Screening assay for agonists of the steroid receptor coactivator 2 (SRC-2) recruitment by the peroxisome proliferator-activated receptor gamma (PPAR gamma): non-selective agonists. [Related pubchem assays: 1297, 1032 ]; assay type: functional
[9] = molecular target: T3, Short transient receptor potential channel 4 (Mus musculus, UniProt Q9QUQ5); experiment: calcium entry via TRPC4 opening agents – cell-based, HEK293 TRPC4/mu-opioid, Fluo-4 calcium, dose response (AID 434937); assay type: functional
T3 sequence (Q9QUQ5 whole entry): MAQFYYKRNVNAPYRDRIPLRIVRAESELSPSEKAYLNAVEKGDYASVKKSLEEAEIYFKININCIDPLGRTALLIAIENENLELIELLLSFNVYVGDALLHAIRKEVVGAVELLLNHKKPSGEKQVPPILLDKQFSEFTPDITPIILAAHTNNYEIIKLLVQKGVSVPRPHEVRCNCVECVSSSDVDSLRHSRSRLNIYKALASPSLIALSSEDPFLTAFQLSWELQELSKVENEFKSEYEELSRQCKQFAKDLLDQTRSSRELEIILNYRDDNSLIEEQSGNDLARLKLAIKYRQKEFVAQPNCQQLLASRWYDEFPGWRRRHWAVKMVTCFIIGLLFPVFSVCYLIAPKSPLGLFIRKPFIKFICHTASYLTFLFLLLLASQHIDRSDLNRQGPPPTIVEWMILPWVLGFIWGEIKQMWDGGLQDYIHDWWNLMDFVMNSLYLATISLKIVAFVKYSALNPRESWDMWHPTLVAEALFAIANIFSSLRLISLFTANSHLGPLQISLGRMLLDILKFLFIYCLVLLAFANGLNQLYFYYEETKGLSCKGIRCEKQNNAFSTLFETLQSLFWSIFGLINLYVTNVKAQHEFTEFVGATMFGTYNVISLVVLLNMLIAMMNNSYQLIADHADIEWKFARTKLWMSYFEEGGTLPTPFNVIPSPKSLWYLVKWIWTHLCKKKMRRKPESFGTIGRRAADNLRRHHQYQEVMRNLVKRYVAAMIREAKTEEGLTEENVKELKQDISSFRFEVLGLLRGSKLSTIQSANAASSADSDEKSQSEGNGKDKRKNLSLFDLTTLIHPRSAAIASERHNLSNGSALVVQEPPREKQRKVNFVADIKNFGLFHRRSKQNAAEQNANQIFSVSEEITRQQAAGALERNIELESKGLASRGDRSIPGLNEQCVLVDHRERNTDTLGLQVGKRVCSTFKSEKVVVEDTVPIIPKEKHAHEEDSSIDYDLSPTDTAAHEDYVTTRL

[10] = molecular target: T4, Glutathione-S-transferase (Schistosoma japonicum, UniProt Q26513); experiment: GST-antibody interaction or FRET quenching – biochemical, TR-FRET, artefact control for Vif-APOBEC3G degradation inhibitor project, dose response (AID 1117362); assay type: functional
T4 sequence (Q26513 whole entry): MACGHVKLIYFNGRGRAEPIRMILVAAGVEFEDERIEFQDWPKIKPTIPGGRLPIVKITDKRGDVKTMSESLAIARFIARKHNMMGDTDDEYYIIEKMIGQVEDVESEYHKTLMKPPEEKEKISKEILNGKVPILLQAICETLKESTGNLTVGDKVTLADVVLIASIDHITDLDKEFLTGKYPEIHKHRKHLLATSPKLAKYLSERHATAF

[11] = molecular target: T5, Ubiquitin-conjugating enzyme E2 N (Homo sapiens, UniProt P61088); assay type: functional
T5 sequence (P61088 whole entry): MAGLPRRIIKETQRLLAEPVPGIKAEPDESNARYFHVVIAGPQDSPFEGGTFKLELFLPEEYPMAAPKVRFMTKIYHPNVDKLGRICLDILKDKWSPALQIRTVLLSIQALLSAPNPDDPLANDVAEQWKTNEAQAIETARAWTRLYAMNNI

[12] = molecular target: T5, Ubiquitin-conjugating enzyme E2 N; assay type: functional; remark: listed apart in the source
[13] = molecular target: T6, Bcl-2-related protein A1 (Mus musculus, UniProt Q07440); assay type: functional;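 further: confirmatory dose–response counterscreen on Bfl-1, used to check hits from a UBC13 polyubiquitin inhibitor campaign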
T6 sequence (Q07440 whole entry): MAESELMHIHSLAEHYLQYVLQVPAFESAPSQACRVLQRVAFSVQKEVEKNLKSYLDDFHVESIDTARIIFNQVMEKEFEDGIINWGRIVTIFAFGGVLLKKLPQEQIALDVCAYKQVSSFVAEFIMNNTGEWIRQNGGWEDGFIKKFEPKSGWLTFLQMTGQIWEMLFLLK

[14] = fluconazole-exposed Candida albicans growth modulators – fluorescence, retest, confirmation (AID 2467); assay type: functional, cell-based
[15] = NIH-3T3 fibroblast cytotoxicity, dose response, cytotoxicity control, cell-based, fluorescence, Alamar Blue, secondary assay (AID 2327); assay type: functional;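 further: NIH-3T3 mouse fibroblasts cultured with fluconazole at 8 µg/mL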
[16] = molecular target: T7, Carboxy-terminal domain RNA polymerase II polypeptide A small phosphatase 1 (Homo sapiens, UniProt Q9GZU7); experiment: CTDSP1 inhibitors, concentration-response, biochemical, absorbance readout, ultra-high-throughput screen actives (AID 540297); assay type: functional
T7 sequence (Q9GZU7 whole entry): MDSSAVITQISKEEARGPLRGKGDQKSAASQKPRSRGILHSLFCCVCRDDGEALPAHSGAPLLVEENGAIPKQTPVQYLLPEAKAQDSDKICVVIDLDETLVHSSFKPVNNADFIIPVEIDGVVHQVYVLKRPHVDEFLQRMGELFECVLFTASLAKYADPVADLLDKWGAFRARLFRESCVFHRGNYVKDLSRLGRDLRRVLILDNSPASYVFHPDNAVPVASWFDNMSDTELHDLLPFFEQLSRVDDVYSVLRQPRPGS

Chain of Peroxisome proliferator-activated receptor gamma/Nuclear receptor coactivator 2 (P37231 whole entry): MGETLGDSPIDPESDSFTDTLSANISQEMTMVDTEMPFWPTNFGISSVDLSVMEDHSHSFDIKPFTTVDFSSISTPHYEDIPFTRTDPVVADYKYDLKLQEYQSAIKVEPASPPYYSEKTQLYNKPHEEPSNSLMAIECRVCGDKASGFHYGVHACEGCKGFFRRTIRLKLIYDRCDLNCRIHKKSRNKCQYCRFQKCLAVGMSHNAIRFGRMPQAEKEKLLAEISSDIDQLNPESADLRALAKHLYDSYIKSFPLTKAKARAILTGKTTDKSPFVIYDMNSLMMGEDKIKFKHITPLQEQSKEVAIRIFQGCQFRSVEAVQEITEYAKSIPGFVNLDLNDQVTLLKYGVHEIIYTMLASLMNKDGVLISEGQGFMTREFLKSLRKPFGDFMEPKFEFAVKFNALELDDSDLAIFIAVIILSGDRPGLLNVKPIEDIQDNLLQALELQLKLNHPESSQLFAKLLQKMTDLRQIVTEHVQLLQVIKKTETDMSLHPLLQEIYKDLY
Chain of Peroxisome proliferator-activated receptor gamma/Nuclear receptor coactivator 2 (Q15596 whole entry, further chain): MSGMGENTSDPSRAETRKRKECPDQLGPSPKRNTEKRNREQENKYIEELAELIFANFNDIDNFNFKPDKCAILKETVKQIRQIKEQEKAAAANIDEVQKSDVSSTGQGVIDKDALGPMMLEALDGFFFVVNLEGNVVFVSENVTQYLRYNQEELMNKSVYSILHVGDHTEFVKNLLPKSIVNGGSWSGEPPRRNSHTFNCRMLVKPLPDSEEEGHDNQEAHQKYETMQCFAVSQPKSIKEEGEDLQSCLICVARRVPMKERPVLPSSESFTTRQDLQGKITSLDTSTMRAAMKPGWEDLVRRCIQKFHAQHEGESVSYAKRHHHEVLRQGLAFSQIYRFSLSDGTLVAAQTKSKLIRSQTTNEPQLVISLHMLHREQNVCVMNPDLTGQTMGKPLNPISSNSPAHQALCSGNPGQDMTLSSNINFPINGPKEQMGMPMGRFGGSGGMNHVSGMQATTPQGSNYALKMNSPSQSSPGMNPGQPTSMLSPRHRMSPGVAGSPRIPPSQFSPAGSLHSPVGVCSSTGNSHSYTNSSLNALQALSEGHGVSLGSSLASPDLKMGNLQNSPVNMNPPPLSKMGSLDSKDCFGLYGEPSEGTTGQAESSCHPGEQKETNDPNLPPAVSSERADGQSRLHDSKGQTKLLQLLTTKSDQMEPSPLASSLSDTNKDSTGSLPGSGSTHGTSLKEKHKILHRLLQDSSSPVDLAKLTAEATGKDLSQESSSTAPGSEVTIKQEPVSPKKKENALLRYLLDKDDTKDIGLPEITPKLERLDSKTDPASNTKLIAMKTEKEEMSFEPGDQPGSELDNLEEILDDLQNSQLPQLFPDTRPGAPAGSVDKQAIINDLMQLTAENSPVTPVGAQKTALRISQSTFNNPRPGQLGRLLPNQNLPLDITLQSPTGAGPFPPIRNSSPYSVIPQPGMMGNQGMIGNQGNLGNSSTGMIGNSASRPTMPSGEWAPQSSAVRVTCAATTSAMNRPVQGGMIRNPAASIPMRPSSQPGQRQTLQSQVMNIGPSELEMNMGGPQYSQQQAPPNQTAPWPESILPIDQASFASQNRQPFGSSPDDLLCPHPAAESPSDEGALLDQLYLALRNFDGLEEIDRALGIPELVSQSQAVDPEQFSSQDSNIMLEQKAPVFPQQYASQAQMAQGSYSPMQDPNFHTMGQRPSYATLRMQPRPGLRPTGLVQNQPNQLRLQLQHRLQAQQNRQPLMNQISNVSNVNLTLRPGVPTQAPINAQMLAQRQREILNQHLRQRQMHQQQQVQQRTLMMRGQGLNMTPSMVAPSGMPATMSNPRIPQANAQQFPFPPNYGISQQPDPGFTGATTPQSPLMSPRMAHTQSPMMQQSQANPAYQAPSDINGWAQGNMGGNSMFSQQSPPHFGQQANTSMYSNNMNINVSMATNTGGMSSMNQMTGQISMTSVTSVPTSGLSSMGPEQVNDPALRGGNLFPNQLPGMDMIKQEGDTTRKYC
Chain of Peroxisome proliferator-activated receptor gamma/Nuclear receptor coactivator 1 (P37231 whole entry): as the sequence (P37231 whole entry) above
Chain of Peroxisome proliferator-activated receptor gamma/Nuclear receptor coactivator 1 (Q15788 whole entry, further chain): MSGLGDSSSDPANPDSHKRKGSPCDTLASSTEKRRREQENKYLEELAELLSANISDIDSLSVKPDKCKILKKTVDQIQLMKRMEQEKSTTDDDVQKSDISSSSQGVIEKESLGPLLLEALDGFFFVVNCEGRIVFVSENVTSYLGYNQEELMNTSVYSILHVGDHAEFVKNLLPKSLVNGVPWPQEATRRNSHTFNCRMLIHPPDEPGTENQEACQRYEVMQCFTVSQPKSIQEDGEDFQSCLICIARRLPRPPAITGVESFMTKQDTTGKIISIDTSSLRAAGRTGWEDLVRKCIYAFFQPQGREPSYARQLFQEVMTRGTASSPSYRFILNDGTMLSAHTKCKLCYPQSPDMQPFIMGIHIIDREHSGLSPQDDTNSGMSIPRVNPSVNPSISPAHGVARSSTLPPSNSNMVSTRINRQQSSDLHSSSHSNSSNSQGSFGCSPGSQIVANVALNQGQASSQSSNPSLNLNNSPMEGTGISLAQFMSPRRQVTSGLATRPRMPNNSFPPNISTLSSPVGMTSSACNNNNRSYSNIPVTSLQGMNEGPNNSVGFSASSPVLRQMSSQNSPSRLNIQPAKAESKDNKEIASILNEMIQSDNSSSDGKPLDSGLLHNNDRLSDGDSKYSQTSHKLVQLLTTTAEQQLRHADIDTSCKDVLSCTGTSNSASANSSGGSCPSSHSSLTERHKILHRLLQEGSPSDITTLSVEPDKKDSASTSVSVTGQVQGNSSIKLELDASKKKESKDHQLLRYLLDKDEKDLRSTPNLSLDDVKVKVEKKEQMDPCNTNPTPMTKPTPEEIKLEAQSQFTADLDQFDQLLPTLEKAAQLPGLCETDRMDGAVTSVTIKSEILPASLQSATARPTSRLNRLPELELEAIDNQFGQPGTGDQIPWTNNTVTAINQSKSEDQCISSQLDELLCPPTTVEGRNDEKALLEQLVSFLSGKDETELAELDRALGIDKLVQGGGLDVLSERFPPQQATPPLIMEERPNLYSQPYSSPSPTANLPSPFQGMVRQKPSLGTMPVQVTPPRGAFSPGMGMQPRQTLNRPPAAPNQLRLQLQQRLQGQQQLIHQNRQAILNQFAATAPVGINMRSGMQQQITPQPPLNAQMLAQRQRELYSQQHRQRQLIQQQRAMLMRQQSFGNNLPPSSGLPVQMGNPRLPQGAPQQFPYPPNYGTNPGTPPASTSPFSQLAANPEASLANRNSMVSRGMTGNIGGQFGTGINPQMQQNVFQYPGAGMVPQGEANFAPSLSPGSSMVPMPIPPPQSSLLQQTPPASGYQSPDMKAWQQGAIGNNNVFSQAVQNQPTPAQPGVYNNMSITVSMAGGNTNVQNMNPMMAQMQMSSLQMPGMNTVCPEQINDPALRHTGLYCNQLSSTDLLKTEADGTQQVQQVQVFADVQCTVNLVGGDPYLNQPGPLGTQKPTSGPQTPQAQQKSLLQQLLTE
Chain of DNA dC->dU-editing enzyme APOBEC-3G (Q9HC16 whole entry, the tested form may be a part): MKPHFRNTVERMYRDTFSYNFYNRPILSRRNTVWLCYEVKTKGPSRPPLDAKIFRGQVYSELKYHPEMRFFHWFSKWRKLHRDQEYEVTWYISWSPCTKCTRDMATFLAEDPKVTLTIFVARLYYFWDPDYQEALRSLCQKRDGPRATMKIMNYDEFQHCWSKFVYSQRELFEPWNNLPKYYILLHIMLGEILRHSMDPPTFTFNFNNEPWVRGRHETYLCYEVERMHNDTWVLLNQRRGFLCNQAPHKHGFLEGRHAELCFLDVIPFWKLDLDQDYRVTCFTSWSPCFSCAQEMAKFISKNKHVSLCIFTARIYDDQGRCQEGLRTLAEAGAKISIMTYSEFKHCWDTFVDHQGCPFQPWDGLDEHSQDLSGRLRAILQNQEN
Chain of DNA dC->dU-editing enzyme APOBEC-3A (P31941 whole entry): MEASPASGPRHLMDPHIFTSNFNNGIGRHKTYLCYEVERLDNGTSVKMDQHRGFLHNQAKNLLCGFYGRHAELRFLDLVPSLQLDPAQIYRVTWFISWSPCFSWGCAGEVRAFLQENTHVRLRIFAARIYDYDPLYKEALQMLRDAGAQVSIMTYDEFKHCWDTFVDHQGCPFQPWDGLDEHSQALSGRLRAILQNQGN
Chain of Alkaline phosphatase, placental type (P05187 whole entry): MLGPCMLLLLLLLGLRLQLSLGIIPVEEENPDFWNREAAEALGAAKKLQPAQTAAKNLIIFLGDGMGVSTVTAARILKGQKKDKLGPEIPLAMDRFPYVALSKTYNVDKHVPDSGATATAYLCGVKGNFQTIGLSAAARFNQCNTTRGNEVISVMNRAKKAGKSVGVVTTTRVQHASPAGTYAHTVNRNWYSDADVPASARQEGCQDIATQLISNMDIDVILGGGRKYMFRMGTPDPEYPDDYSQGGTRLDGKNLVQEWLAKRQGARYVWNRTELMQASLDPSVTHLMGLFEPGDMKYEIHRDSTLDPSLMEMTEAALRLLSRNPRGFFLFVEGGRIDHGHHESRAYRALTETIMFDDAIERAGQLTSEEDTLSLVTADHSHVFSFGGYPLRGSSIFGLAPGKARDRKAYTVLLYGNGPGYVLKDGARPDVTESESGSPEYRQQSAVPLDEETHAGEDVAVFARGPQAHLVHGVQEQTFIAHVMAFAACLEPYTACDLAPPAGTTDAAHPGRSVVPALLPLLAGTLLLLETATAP

Structure (SMILES): O=C(NCc1ccccc1CN1CCCCC1)c1ccccc1N1CCCC1=O
- IC50 [1]: 4.48 µM (active)
- IC50 [2]: 4.58 µM (active)

Structure (SMILES): Cc1cccc2sc(N(CCCN(C)C)C(=O)c3ccc(S(=O)(=O)N4CCc5ccccc5C4)cc3)nc12
- EC50 [3]: > 100 µM (inactive)

Structure (SMILES): COc1ccc(F)cc1S(=O)(=O)Nc1ccc2ccccc2c1
- IC50 [4]: > 100 µM (inactive)
- IC50 [5]: > 100 µM (inactive)

Structure (SMILES): COc1ccccc1-c1nc(SCC(=O)c2ccc(O)c(O)c2)n[nH]1
- IC50 [4]: 14.8 µM (active)
- IC50 [5]: 3.34 µM (active)

Structure (SMILES): Cc1cc(-c2ccc(Br)s2)nc(-n2cccc2)n1
- EC50 [6]: > 79.4 µM (inactive)
- EC50 [7]: > 79.4 µM (not active)
- EC50 [8]: 19.3 µM (not active)

Structure (SMILES): Cn1cc[n+](C)c1P(=S)(c1ccccc1)c1ccccc1
- EC50 [9]: 0.237 µM (active)

Structure (SMILES): Cc1ccc(C)n1-c1ccc(-c2nnc3n2CCCCC3)s1
- EC50 [6]: > 79.4 µM (inactive)
- EC50 [7]: > 79.4 µM (not active)
- IC50 [10]: 86.7 µM (active)
- EC50 [8]: 38.7 µM (not active)

Structure (SMILES): CCC(c1nnnn1CCOC)N(Cc1ccc(C)cc1)Cc1cc2cc(OC)ccc2[nH]c1=O (stereo not drawn)
- EC50 [3]: > 100 µM (inactive)

Structure (SMILES): CCOc1ccc(NS(=O)(=O)c2cc(C(=O)NCCCN3CCOCC3)ccc2C)cc1
- IC50 [11]: 9.23 µM (active)
- IC50 [12]: 10.5 µM (active)
- IC50 [13]: > 20 µM (inactive)

Structure (SMILES): CCn1c(SCC(=O)c2ccc(OC)cc2)nnc1-c1ccccc1
- IC50 [4]: > 100 µM (inactive)
- IC50 [5]: > 100 µM (inactive)

Structure (SMILES): CCn1c(=S)[nH]c2scc(-c3cccs3)c2c1=O
- EC50 [14]: 1.23 µM (active)
- EC50 [6]: 8.82 µM (active)
- EC50 [7]: > 79.4 µM (not active)
- EC50 [15]: > 160 µM (inactive)
- EC50 [8]: 11.1 µM (not active)

Structure (SMILES): Cc1ccc(NC(=O)C2CCCN2C(=O)c2cccs2)c(C)c1 (stereo not drawn)
- IC50 [1]: 3.76 µM (active)
- IC50 [2]: 6.6 µM (active)

Structure (SMILES): O=C(CC1C(=O)NCCN1Cc1cccc(Oc2ccccc2)c1)NCCc1ccccn1 (stereo not drawn)
- EC50 [9]: 4.73 µM (active)

Structure (SMILES): COc1cc(/C=C/c2cccc[n+]2C)ccc1OCC(=O)Nc1cccc(Cl)c1
- IC50 [16]: 18.9 µM (active)
- IC50 [1]: 2.83 µM (active)
- IC50 [2]: 2.95 µM (active)

Structure (SMILES): CCOc1cc2[nH]c(=S)n(CCN3CCCCC3CC)c(=O)c2cc1OCC (stereo not drawn)
- EC50 [3]: > 100 µM (inactive)
